Experimental findings from ChEMBL document CHEMBL4152237, “Identification of novel β-lactams and pyrrolidinone derivatives as selective Histamine-3 receptor (H3R) modulators as possible anti-obesity agents” (Eur J Med Chem, 2018) are described below.

Structures are written as SMILES. The source made the active and inactive calls. Unless noted, the calls are words filed in the database; no cut-off is given here.

A short description of series [1]: Octanol/water partition co-efficient, log P of the compound after 24 hrs by HPLC based shake-flask method. Format: physicochemical.
The target of series [2] is T1, Histamine H3 receptor (Homo sapiens, UniProt Q9Y5N1). The series can be described thus: Agonist activity at human H3R expressed in HEK293 cells harboring glosensor-22F cAMP plasmid DNA assessed as inhibition of forskolin-stimulated cAMP accumulation preincubated with cells followed by forskolin addition measured after 10 mins by luminescence assay. Format: functional, cell-based.

The target in series [3] is T1, Histamine H3 receptor. Put plainly: Agonist activity at human H3R expressed in HEK293 cells harboring glosensor-22F cAMP plasmid DNA assessed as inhibition of forskolin-stimulated cAMP accumulation at 1 uM preincubated with cells followed by forskolin addition measured after 10 mins in presence of H3R antagonist GSK334429 by luminescence assay. Format: functional, cell-based.

The target of series [4] is T2, 5-hydroxytryptamine receptor 2C (Homo sapiens) (UniProt P28335).
T2 sequence (whole entry): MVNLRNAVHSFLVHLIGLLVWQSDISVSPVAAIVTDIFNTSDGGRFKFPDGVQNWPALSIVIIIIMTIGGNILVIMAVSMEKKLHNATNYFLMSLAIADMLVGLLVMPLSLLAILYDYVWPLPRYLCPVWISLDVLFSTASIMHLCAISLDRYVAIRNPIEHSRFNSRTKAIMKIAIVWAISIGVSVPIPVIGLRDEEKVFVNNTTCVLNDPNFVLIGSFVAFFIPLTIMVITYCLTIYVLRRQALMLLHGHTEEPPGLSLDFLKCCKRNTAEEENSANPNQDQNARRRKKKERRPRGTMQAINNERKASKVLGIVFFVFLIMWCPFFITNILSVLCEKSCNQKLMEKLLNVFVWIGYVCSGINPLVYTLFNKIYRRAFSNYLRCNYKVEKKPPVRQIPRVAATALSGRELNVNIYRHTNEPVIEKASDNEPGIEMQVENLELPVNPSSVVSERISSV
Put plainly: Agonist activity at human 5-HT2C expressed in HEK293 cells harboring luc2P/NFAT-RE plasmid at 10 uM after 6 to 8 hrs by luciferase reporter gene assay. Type of series: functional, cell-based.

Series [5] addresses Histamine H1 receptor (Homo sapiens) (UniProt P35367). Put plainly: Agonist activity at H1R (unknown origin) expressed in HEK293 cells harboring luc2P/NFAT-RE plasmid at 10 uM after 6 to 8 hrs by luciferase reporter gene assay. Type of series: functional, cell-based.
The target in series [6] is Histamine H2 receptor (Homo sapiens) (UniProt P25021). Put plainly: Agonist activity at H2R (unknown origin) expressed in HEK293 cells harboring glosensor-22F cAMP plasmid DNA assessed as inhibition of forskolin-stimulated cAMP accumulation at 10 uM preincubated with cells followed by forskolin addition measured after 10 mins by luminescence assay. Type of series: functional, cell-based.

The target in series [7] is Histamine H4 receptor (Homo sapiens) (UniProt Q9H3N8). The series can be described thus: Agonist activity at H4R (unknown origin) expressed in HEK293 cells harboring glosensor-22F cAMP plasmid DNA assessed as inhibition of forskolin-stimulated cAMP accumulation at 10 uM preincubated with cells followed by forskolin addition measured after 10 mins by luminescence assay. Format: functional, cell-based.

The target of series [8] is Luciferin 4-monooxygenase (Photinus pyralis) (UniProt P08659). Put plainly: Inhibition of firefly luciferase activity expressed in HEK293 cells assessed as reduction in forskolin-stimulated cAMP accumulation up to 10 uM preincubated with cells followed by forskolin addition measured after 10 mins by luminescence assay. Type of series: cell-based.
The subject of series [9] is HEK-293T. The series can be described thus: Cytotoxicity against HEK293T cells assessed as reduction in cell viability at 1 to 10 uM after 24 hrs by XTT assay. Particulars: human. Type of series: cell-based.
In series [10] the target is Histamine H1 receptor (Homo sapiens) (UniProt P35367). Put plainly: Antagonist activity at H1R (unknown origin) expressed in HEK293 cells harboring luc2P/NFAT-RE plasmid at 10 uM after 6 to 8 hrs by luciferase reporter gene assay. Type of series: functional, cell-based.
Series [11] deals with Histamine H2 receptor (Homo sapiens) (UniProt P25021). Put plainly: Antagonist activity at H2R (unknown origin) expressed in HEK293 cells harboring glosensor-22F cAMP plasmid DNA assessed as effect on forskolin-stimulated cAMP accumulation at 10 uM preincubated with cells followed by forskolin addition measured after 10 mins by luminescence assay. Type of series: functional, cell-based.

The target in series [12] is Histamine H4 receptor (Homo sapiens) (UniProt Q9H3N8). Put plainly: Antagonist activity at H4R (unknown origin) expressed in HEK293 cells harboring glosensor-22F cAMP plasmid DNA assessed as effect on forskolin-stimulated cAMP accumulation at 10 uM preincubated with cells followed by forskolin addition measured after 10 mins by luminescence assay. Type of series: functional, cell-based.

In series [13] the target is T2, 5-hydroxytryptamine receptor 2C (Homo sapiens). The series can be described thus: Antagonist activity at human 5-HT2C expressed in HEK293 cells harboring luc2P/NFAT-RE plasmid at 10 uM after 6 to 8 hrs by luciferase reporter gene assay. Type of series: functional, cell-based.

Sequence of Histamine H2 receptor (Homo sapiens) (P25021 whole entry): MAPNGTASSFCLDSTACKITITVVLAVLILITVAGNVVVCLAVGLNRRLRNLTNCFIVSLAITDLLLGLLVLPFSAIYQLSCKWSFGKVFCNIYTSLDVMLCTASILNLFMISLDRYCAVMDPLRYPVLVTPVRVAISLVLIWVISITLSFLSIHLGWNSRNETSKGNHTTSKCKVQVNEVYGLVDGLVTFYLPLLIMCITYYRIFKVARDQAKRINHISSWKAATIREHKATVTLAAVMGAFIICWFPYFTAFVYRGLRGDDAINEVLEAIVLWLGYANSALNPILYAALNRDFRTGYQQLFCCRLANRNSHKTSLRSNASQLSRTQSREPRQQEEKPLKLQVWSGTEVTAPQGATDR
T1 sequence (Q9Y5N1 whole entry): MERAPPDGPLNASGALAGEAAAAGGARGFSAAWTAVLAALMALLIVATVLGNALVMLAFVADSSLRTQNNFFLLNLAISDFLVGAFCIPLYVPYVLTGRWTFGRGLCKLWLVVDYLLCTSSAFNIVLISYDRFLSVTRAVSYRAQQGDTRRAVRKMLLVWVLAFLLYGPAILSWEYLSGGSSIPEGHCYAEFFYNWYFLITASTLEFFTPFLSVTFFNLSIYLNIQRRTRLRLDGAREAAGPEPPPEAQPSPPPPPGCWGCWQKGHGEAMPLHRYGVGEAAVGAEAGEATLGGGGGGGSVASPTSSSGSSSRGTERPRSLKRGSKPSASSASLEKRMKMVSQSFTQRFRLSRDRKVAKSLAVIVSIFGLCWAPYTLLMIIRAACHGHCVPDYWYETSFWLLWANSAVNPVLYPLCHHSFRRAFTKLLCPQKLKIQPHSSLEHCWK
Sequence of Luciferin 4-monooxygenase (Photinus pyralis) (P08659 whole entry): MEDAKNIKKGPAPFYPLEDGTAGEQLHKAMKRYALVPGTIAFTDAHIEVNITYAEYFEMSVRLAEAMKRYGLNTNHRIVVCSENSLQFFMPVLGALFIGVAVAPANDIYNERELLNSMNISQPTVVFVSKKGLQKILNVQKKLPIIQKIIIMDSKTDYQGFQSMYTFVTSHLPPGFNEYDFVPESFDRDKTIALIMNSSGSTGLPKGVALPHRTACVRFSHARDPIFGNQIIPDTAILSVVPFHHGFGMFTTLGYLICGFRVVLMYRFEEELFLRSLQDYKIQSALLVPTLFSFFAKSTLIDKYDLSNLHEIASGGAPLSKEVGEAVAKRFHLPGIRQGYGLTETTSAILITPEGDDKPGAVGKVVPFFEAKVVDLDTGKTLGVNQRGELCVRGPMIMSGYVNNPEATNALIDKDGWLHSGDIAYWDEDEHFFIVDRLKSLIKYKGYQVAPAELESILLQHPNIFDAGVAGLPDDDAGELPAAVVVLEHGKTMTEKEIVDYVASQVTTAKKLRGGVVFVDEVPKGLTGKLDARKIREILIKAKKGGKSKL
Sequence of Histamine H4 receptor (Homo sapiens) (Q9H3N8 whole entry): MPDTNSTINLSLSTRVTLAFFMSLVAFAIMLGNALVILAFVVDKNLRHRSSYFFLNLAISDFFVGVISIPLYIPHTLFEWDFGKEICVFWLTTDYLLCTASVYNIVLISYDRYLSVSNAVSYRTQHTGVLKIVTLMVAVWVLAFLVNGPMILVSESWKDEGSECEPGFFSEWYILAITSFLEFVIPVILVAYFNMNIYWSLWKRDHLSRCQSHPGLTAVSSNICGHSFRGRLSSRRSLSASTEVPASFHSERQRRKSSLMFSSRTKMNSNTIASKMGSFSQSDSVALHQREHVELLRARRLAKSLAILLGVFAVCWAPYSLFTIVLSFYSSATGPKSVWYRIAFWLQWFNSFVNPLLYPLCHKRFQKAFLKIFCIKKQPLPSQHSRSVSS
Sequence of Histamine H1 receptor (Homo sapiens) (P35367 whole entry): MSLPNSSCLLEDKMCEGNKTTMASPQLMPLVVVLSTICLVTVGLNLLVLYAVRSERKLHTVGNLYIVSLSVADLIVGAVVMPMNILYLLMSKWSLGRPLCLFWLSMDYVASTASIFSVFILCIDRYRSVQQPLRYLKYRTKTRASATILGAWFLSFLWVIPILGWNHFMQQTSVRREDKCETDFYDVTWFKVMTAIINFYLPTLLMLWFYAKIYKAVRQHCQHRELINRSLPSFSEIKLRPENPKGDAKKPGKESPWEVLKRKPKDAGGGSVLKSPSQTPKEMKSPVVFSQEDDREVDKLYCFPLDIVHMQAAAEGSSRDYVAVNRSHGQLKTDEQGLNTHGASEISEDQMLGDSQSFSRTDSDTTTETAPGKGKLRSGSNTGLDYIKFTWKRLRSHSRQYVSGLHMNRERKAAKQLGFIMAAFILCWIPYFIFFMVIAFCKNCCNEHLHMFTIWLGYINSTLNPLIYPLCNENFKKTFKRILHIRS

For the compound `COc1ccc(C(C(=O)NC2CCCCC2)N2C(=O)C(c3ccc(C(F)(F)F)cc3)=C(c3ccccc3)C23C=CC(=O)C=C3)c(OC)c1OC` (stereo not given), in [1], the logP at 24 h was 2.74. In addition, the EC50 in series [2] (read-out: EC50) came to 13 nM. In addition, the inhibition result in series [3], in series [6], in series [7], in series [8], in series [10] and in series [11] was “inactive” throughout. Moreover, the inhibition entry in series [12] and in series [13] was “inactive” each time. The result in series [4] and in series [5] was inactive. Further, the Activity result in series [9] is “Non-Toxic”.

On to `COc1ccc(N2C(=O)C(=Cc3ccccc3)C2(C(=O)NC2CCCCC2)c2cc(F)c(F)c(F)c2)cc1` (stereo not given), for which, in [2] (read-out: EC50), the EC50 is 0.1 nM. Moreover, the inhibition result in [3], in [6], in [7], in [8], in [10] and in [11] was “inactive” in each case. The inhibition result in series [12] and in series [13] was “inactive” throughout. Besides, the outcome in [4] and in series [5] was inactive. Besides, the Activity entry in series [9] is recorded as “Non-Toxic”.

Regarding `O=C1C=C[C@]23C(c4ccccc4)=CC(=O)N2[C@H](c2cc(F)cc(F)c2)C(=O)N[C@@H]3C1`, the EC50 in series [2] (read-out: EC50) was 10 nM. Also, the inhibition entry in series [3], in series [6], in series [7], in series [8], in [10] and in series [11] was “inactive” throughout. In addition, the inhibition result in [12] and in series [13] was “inactive” throughout. Besides, the outcome in series [4] and in series [5] was inactive. Also, in [9], the Activity entry is on record as “Non-Toxic”.

Turning to `COc1cc(N2C(=O)C(=Cc3ccccc3)C2(C(=O)NC(C)(C)C)c2ccc(Cl)c(F)c2)cc(OC)c1OC` (stereo not given), in [2] (read-out: EC50), the EC50 amounted to 1.1 nM. Moreover, the inhibition entry in series [3], in series [6], in series [7], in [8], in series [10] and in series [11] was “inactive” throughout. The inhibition result in series [12] and in series [13] was “inactive” each time. Moreover, the result in series [4] and in series [5] was inactive. The Activity entry in series [9] is on record as “Non-Toxic”.

Turning to `COc1cc(NC2(c3ccccc3Cl)C(=O)N(C(C)(C)C)C(=O)/C2=C/c2ccccc2)cc(OC)c1OC` (stereo not given), in [2] (read-out: EC50), the EC50 came out at 187 nM. In addition, the inhibition result in series [3], in [6], in series [7], in series [8], in series [10] and in [11] was “inactive” each time. The inhibition result in [12] and in [13] was “inactive” in each case. The result in series [4] and in series [5] was inactive. Also, the Activity result in [9] is “Non-Toxic”.

On to `COc1ccc(NC2(c3cc(F)cc(F)c3)C(=O)N(C3CCCCC3)C(=O)/C2=C/c2ccccc2)cc1` (stereo not given), for which the EC50 in series [2] (read-out: EC50) was determined as 3.8 nM. Moreover, the inhibition result in series [3], in series [6], in series [7], in series [8], in series [10] and in [11] was “inactive” throughout. For the same compound, the inhibition entry in series [12] and in [13] was “inactive” each time. In addition, the outcome in [4] and in series [5] was inactive. Also, the Activity entry in series [9] is on record as “Non-Toxic”.

`COc1ccc(NC2(c3ccccc3)C(=O)N(C(C)(C)C)C(=O)/C2=C/c2ccccc2)cc1` (stereo not given): the EC50 in series [2] (read-out: EC50) is 3 nM; in series [2] (read-out: pEC50 (converted)) it was 22.9 nM. Moreover, the inhibition entry in series [3], in series [6], in series [7], in series [8], in series [10] and in [11] was “inactive” throughout. For the same compound, the inhibition result in [12] and in [13] was “inactive” throughout. Besides, the outcome in [4] and in [5] was inactive. Also, the Activity entry in series [9] is reported as “Non-Toxic”.

`COc1ccc(C2=C(c3ccccc3)C3(C=CC(=O)C=C3)N(C(C(=O)NC3CCCCC3)c3cc4c(cc3Br)OCO4)C2=O)cc1` (stereo not given): the EC50 in series [2] (read-out: EC50) was 14.4 nM. Further, the inhibition result in series [3], in series [6], in series [7], in series [8], in series [10] and in series [11] was “inactive” in each case. The inhibition result in series [12] and in [13] was “inactive” each time. For the same compound, the outcome in series [4] and in series [5] was inactive. Further, the Activity result in [9] was “Non-Toxic”.

With `COc1ccc(NC2(c3ccc(Br)cc3)C(=O)N(C(C)(C)C)C(=O)/C2=C/c2ccccc2)cc1OC` (stereo not given), in series [2] (read-out: EC50), the EC50 turned out to be 1.3 nM. Also, the inhibition result in [3], in [6], in [7], in [8], in series [10] and in series [11] was “inactive” throughout. The inhibition result in [12] and in [13] was “inactive” throughout. Moreover, the result in [4] and in series [5] was inactive. In addition, the Activity entry in [9] was “Non-Toxic”.

For the compound `COc1cc(N2C(=O)C(=Cc3ccccc3)C2(C(=O)NC(C)(C)C)c2ccccc2)cc(OC)c1OC` (stereo not given), in [2] (read-out: EC50), the EC50 is 0.1 nM. The inhibition result in series [3], in series [6], in series [7], in series [8], in [10] and in series [11] was “inactive” each time. The inhibition result in [12] and in [13] was “inactive” throughout. For the same compound, the outcome in series [4] and in [5] was inactive. Also, the Activity result in series [9] is “Non-Toxic”.

For `COc1ccc(NC2(c3ccc(F)cc3)C(=O)N(C(C)(C)C)C(=O)/C2=C/c2ccccc2)cc1` (stereo not given), the EC50 was 1.3 nM in [2] (read-out: EC50) and 1.23 nM in [2] (read-out: pEC50 (converted)). Further, the inhibition entry in [3], in series [6], in series [7], in [8], in [10] and in series [11] was “inactive” each time. In addition, the inhibition entry in [12] and in [13] was “inactive” in each case. For the same compound, the outcome in series [4] and in series [5] was inactive. Moreover, the Activity result in series [9] is recorded as “Non-Toxic”.
